Assays:
[1] = Lipophilicity assay (chromatographic LogD); format: physicochemical; settings: pH 7.4
Method: Distribution coefficient (LogD, pH 7.4) was obtained by a high-throughput alternative method. Each compound was dissolved in DMSO at 10 mM. After centrifugation, the solution was measured by reversed-phase HPLC on a C18 column (50 × 4.6 mm, […] Gemini C18, Phenomenex) at pH 7.4, using fast gradient acetonitrile-aqueous buffer mobile phases. The lipophilicity was estimated from a calibration curve using six reference compounds by plotting their respectively measured retention time versus LogD in literature. The chromatographic LogD values were derived directly from the gradient retention time by using this calibration curve.

HCC1954 = assay: Cell viability assay, HCC1954; format: cell-based; settings: Homo sapiens, HCC1954, 144 h, read-out: IC50 cytotoxicity
Method: (§1) Cells were seeded into 96-well plates at 1500 cells/well for SK-BR-3, JIMT-1, and NCI-N87, 800 cells/well for HCC1954, 600 cells/well for AGS and MKN-45, 2500 cells/well for MDA-MB-468 and Capan-1, and 1000 cells/well for SNU-16. After overnight incubation, a serially diluted solution of compounds or ADCs was added. Cell viability was evaluated after 6 days using CellTiter-Glo reagent (Promega) according to the manufacturer’s instructions. Luminescence was measured by PHERAstar (BMG LABTECH).

MKN45 = assay: Cell viability assay, MKN45; format: cell-based; settings: Homo sapiens, MKN-45, 144 h, read-out: IC50 cytotoxicity
Method: as §1

JIMT-1 = assay: Cell viability assay, JIMT-1; format: cell-based; settings: Homo sapiens, JIMT-1, 144 h, read-out: IC50 cytotoxicity
Method: as §1

[2] = Pharmacokinetics of payload in mice; set-up: species or system C57BL/6 mice; settings: C57BL/6, mouse, in vivo, iv, 0.5 mg/kg
Method: All animal experiments at Shanghai Hengrui were approved by Shanghai Hengrui’s Institutional Animal Care and Use Committee. Studies were performed in accordance with ARRIVE guidelines. C57BL/6 mice (15–18 g body weight, n = 18) were purchased from Beijing Vital River Laboratory Animal Technology Co., Ltd and were held as described in details of mouse xenograft section. Compounds were administered intravenously at 0.5 mg/kg. Blood samples were collected at various time points after dosing. Mice were monitored daily for health condition and humane endpoint criteria. There were no unexpected animal deaths or humane endpoint criteria reached during the study. All of the animals were euthanized by using inhaled carbon dioxide at the end of study. The compound concentrations were determined by SCIEX Triple Quad 7500 LC-MS/MS System (SCIEX).

[3] = Parallel artificial membrane permeability (PAMPA) assay; format: in vitro ADME
Method: PAMPA assay was outsourced to Wuxi Apptech Co. Ltd. Briefly, donor plate, acceptor plate and receiver plate formed a sandwich and 200 µL of 5.0 µM donor solutions were added. The concentrations of compounds in both plates were measured by a LC-MS/MS system after 30 minutes. The permeability coefficient (Peff, nm/s) values at pH 5 and 7.4 were calculated.

Capan-1 = assay: Cell viability assay, Capan-1; format: cell-based; settings: Homo sapiens, CAPAN-1, 144 h, read-out: IC50 cytotoxicity
Method: as §1

AGS = assay: Cell viability assay, AGS; format: cell-based; settings: Homo sapiens, 144 h, read-out: IC50 cytotoxicity
Method: as §1

[4] = Toxicokinetics in cynomolgus monkeys; format: in vivo; settings: for half-life: both sexes, cynomolgus monkey, in vivo, iv, 40 mg/kg
Method: GLP toxicology and toxicokinetics studies were outsourced to Shanghai InnoStar Bio-tech Co., Ltd. Studies were approved by InnoStar’s Institutional Animal Care and Use Committee and carried out in compliance with ARRIVE guidelines. Cynomolgus monkeys were housed in stainless steel cages at the study institution. The temperature and relative humidity of the room were recorded twice a day with ranged from 18 to 26°C and 40–70%, respectively. Ventilation was constantly operated with ≥ 8 times of air changes per hour. […] Monkey maintenance feed was purchased from qualified supplier with microorganisms, heavy metals and pesticide residues tested. During the study, all animals had ad libitum access to feed and clean deionized water except during specific fasting. […] All animals were acclimated to temperature and relative humidity-controlled environment for few days before randomization. Detailed clinical observation was performed on all cynomolgus monkeys once a day during the acclimation period. All of the animal care staff were trained to maximal reduce the pain of animals. Special training such as animal handling, proper injection for treatment/anesthesia, and painless death were taught to the staff.
Clinical signs, body weight, food consumption, and clinical pathology were monitored twice a day. […] Humane endpoint criteria were observed twice a day during study to examine health and behavior. Animals were sacrificed in less than a day once reached endpoint criteria. There were no unexpected animal deaths during the studies with 16-weeks duration. All of the animals were euthanized by intravenous injection of combination of zoletil and xylazine at the end of study for targeted organ and tissue examinations to evaluate toxicity or when the following humane endpoints were reached: severe injury, severe respiratory depression, severe weight loss, persistent anorexia, significant pain or stress, progressive pain leading to weakness, and persistent or continuous twitching. Final disposal of each animal was recorded on the study records.

SK-BR-3 = assay: Cell viability assay, SK-BR-3; format: cell-based; settings: Homo sapiens, SK-BR-3, 144 h, read-out: IC50 cytotoxicity
Method: as §1

NCI-N87 = assay: Cell viability assay, NCI-N87; format: cell-based; settings: Homo sapiens, NCI-N87, 144 h, read-out: IC50 cytotoxicity
Method: as §1

nine cancer cell lines = assay: Cell viability assay, panel of nine cancer cell lines; format: cell-based; settings: Homo sapiens; independent of HER2 expression levels; read-out: IC50 values across nine cancer cell lines
Method: as §1

MDA-MB-468 = assay: Cell viability assay, MDA-MB-468; format: cell-based; settings: Homo sapiens, MDA-MB-468, 144 h, read-out: IC50 cytotoxicity
Method: as §1

human topoisomerase I = biological target: T1, human topoisomerase I (Homo sapiens, UniProt P11387); assay: Topoisomerase I inhibition assay; format: biochemical; settings: read-out: Top I inhibition (IC50)
T1 construct: purchased Inspiralis
T1 sequence (P11387 1-765): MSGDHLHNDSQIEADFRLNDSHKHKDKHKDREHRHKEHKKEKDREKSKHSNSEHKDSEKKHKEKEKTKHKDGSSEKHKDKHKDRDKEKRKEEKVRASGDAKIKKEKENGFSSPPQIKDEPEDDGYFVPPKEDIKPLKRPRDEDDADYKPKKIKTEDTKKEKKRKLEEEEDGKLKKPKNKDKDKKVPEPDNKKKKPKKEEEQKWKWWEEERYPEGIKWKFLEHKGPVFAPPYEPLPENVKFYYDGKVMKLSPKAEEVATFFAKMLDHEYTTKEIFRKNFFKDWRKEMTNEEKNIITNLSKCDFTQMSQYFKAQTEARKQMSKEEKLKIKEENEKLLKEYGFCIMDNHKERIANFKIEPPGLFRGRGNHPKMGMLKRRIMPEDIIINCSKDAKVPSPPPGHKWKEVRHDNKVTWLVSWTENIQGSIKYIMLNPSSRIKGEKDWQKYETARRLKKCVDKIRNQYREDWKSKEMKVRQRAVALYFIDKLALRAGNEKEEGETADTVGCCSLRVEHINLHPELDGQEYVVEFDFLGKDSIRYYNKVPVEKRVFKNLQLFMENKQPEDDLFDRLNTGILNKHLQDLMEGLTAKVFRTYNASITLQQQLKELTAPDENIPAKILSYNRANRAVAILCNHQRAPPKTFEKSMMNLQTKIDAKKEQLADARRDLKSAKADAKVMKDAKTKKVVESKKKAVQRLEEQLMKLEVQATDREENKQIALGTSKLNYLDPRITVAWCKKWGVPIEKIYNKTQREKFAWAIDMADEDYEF
Method: Topoisomerase I inhibition assay was outsourced to Wuxi Apptech Co. Ltd. Topoisomerase I activity was measured using human topoisomerase I microplate assay kit (Inspiralis), according to the manufacturer’s instructions.

Question: Which chromatographic logD [1] does the source give for CC[C@@]1(O)C(=O)OCc2c1cc1n(c2=O)Cc2c-1nc1cc(F)c(C)c3c1c2[C@@H](NC(=O)[C@H](O)C1CC1)CC3 [SHR169265] here?
Answer: 1.89

Question: And the IC50 (HCC1954)?
Answer: 0.55 ± 0.19 nM

Question: And the IC50 (MKN45)?
Answer: 0.3 ± 0.07 nM

Question: What about the IC50 (JIMT-1) of the same compound?
Answer: 2.32 ± 0.45 nM

Question: What about the AUC(0-t) [2] of the same compound?
Answer: 113 ng·h/mL

Question: What about the Cmax [2] of the same compound?
Answer: 250 ng/mL

Question: And the Vd [2]?
Answer: 1.81 L/kg

Question: And the clearance [2]?
Answer: 72.6 mL/min/kg

Question: What about the half-life ([2]; mice, i.v. injection) of the same compound?
Answer: 0.37 h

Question: And the Papp at 30 min, 5 µM ([3]; pH 5)?
Answer: 13.8 ×10⁻⁶ cm/s

Question: What about the Papp at 30 min, 5 µM ([3]; pH 7.4) of the same compound?
Answer: 7.16 ×10⁻⁶ cm/s

Question: What about the IC50 (Capan-1) of the same compound?
Answer: 0.38 ± 0.07 nM

Question: And the IC50 (AGS)?
Answer: 0.36 ± 0.11 nM

Question: What about the RacAUCINF ([4]; analyte after SHR-A1811 40 mg/kg i.v. every 3 weeks, Multiple vs single) of the same compound?
Answer: 1.07

Question: What about the half-life ([4]; analyte after SHR-A1811 40 mg/kg i.v. every 3 weeks, Multiple) of the same compound?
Answer: 101 h

Question: And the half-life ([4]; analyte after SHR-A1811 40 mg/kg i.v., Single)?
Answer: 107 h

Question: What about the IC50 (SK-BR-3) of the same compound?
Answer: 0.58 ± 0.1 nM

Question: What about the IC50 (NCI-N87) of the same compound?
Answer: 1 ± 0.07 nM

Question: And the IC50 (nine cancer cell lines)?
Answer: 0.3 to 2.32 nM

Question: What about the IC50 (MDA-MB-468) of the same compound?
Answer: 0.56 ± 0.09 nM

Question: What about the IC50 (human topoisomerase I) of the same compound?
Answer: 1340 nM

Source: publication PMC12200682 (PLOS One, 2025)
